From ChEMBL document CHEMBL3621056, “Discovery of mitochondria-targeting berberine derivatives as the inhibitors of proliferation, invasion and migration against rat C6 and human U87 glioma cells” (Medchemcomm, 2015)
pIC50: −log10 of the molar value. The source made the active and inactive calls. The rule behind the calls is not given here.

Legend:
[1] = n-octanol/water partition coefficient, log P of the compound by HPLC analysis; format: physicochemical
[2] = tested on: C6; experiment: Cytotoxicity against rat C6 cells assessed as inhibition of cell proliferation after 24 hrs by MTT assay; format: functional, cell-based; conditions: for pIC50: C6, 24 h
[3] = (§1) Cytotoxicity against human U87 cells assessed as inhibition of cell proliferation after 24 hrs by MTT assay; format: functional, cell-based, U-87MG ATCC; conditions: U-87 MG
[4] = tested on: U-87MG ATCC; experiment: as §1; format: functional, cell-based
[5] = tested on: C6; experiment: Cytotoxicity against rat C6 cells assessed as cell survival rate at 10 uM after 24 hrs by MTT assay relative to control; format: functional; conditions: C6, 24 h, read-out: Survival
[6] = Cytotoxicity against human U87 cells assessed as cell survival rate at 10 uM after 24 hrs by MTT assay relative to control; format: functional, U-87MG ATCC; conditions: U-87 MG, read-out: Survival
[7] = tested on: C6; experiment: Antimigratory activity in rat C6 cells at 0.5 uM after 24 hrs by Transwell assay relative to control; format: functional
[8] = tested on: C6; experiment: Antiinvasive activity in rat C6 cells at 0.5 uM after 24 hrs by Transwell assay relative to control; format: functional
[9] = (§2) Antimigratory activity in human U87 cells at 0.5 uM after 24 hrs by Transwell assay relative to control; format: functional, U-87MG ATCC
[10] = (§3) Antiinvasive activity in human U87 cells at 0.5 uM after 24 hrs by Transwell assay relative to control; format: functional, U-87MG ATCC
[11] = Drug uptake in mitochondria of rat C6 cells at 1 uM after 24 hrs by Mitotracker Green FM staining-based laser confocal microscopic analysis; format: ADME; conditions: c6, 24 h
[12] = Drug uptake in mitochondria of human U87 cells at 1 uM after 24 hrs by Mitotracker Green FM staining-based laser confocal microscopic analysis; format: ADME; conditions: u-87mg atcc
[13] = tested on: C6; experiment: Induction of intracellular reactive oxygen species formation in rat C6 cells at 2 uM after 24 hrs by DHE dye-based inverted fluorescent microscopic analysis; format: functional, cell-based
[14] = tested on: U-87MG ATCC; experiment: Induction of intracellular reactive oxygen species formation in human U87 cells at 2 uM after 24 hrs by DHE dye-based inverted fluorescent microscopic analysis; format: functional, cell-based
[15] = (§4) Antimigratory activity in human U87 cells at 2.5 uM after 24 hrs by Transwell assay relative to control; format: functional, U-87MG ATCC
[16] = (§5) Antiinvasive activity in human U87 cells at 2.5 uM after 24 hrs by Transwell assay relative to control; format: functional, U-87MG ATCC
[17] = tested on: C6; experiment: Cytotoxicity against rat C6 cells assessed as cell survival rate at 20 uM after 24 hrs by MTT assay relative to control; format: functional; conditions: C6, 24 h, read-out: Survival
[18] = Cytotoxicity against human U87 cells assessed as cell survival rate at 20 uM after 24 hrs by MTT assay relative to control; format: functional, U-87MG ATCC; conditions: U-87 MG, read-out: Survival
[19] = tested on: U-87MG ATCC; experiment: as §4; format: functional
[20] = tested on: U-87MG ATCC; experiment: as §5; format: functional
[21] = tested on: C6; experiment: Antimigratory activity in rat C6 cells at 1 uM after 24 hrs by Transwell assay; format: functional, cell-based
[22] = tested on: C6; experiment: Antiinvasive activity in rat C6 cells at 1 uM after 24 hrs by Transwell assay; format: functional, cell-based
[23] = tested on: U-87MG ATCC; experiment: as §2; format: functional
[24] = tested on: U-87MG ATCC; experiment: as §3; format: functional
[25] = Cytotoxicity against human U87 cells assessed as growth inhibition after 72 hrs by SRB assay; format: functional, cell-based, U-87MG ATCC; conditions: U-87 MG
[26] = Cytotoxicity against human U87 cells assessed as cell survival rate up to 20 uM after 24 hrs by MTT assay relative to control; format: functional, U-87MG ATCC
[27] = Antiinvasive activity in human U87 cells at 2 uM after 24 hrs by Transwell assay relative to control; format: functional, U-87MG ATCC
[28] = Antimigratory activity in human U87 cells at 2 uM after 24 hrs by Transwell assay relative to control; format: functional, U-87MG ATCC
[29] = tested on: C6; experiment: Antimigratory activity in rat C6 cells at 5 uM after 24 hrs by Transwell assay; format: functional, cell-based
[30] = tested on: C6; experiment: Antiinvasive activity in rat C6 cells at 5 uM after 24 hrs by Transwell assay; format: functional, cell-based
[31] = tested on: U-87MG ATCC; experiment: Antimigratory activity in human U87 cells at 5 uM after 24 hrs by Transwell assay; format: functional, cell-based
[32] = tested on: U-87MG ATCC; experiment: Antiinvasive activity in human U87 cells at 5 uM after 24 hrs by Transwell assay; format: functional, cell-based

Compound | logP [1] | inhibition [2] | pIC50 [2] | pIC50 [3] | inhibition [4] | viability at 10 µM [5] [%] | viability at 10 µM [6] [%] | Activity [7] | Activity [8] | Drug uptake [11] | Drug uptake [12] | Activity [13] | Activity [14] | Activity [15] [%] | Activity [16] [%] | other results
CCCCCCCCCCCCc1c2[n+](cc3c(OC)c(OC)ccc13)CCc1cc3c(cc1-2)OCO3.[I-] | 3.66 | Dose-dependent effect | 5.78 | 5.51 | Dose-dependent effect | < 20 | < 20 | >60% | >60% | Active | Active | Active | Active | – | – | Activity [9]: >60%; Activity [10]: >60%
CCCCCCCCCCCCCCCCCCc1c2[n+](cc3c(OC)c(OC)ccc13)CCc1cc3c(cc1-2)OCO3.[I-] | 3.22 | Dose-dependent effect | 5.63 | 5.24 | Dose-dependent effect | < 20 | < 20 | >30% | >30% | – | – | inactive | inactive | >30 | >30 | –
COc1ccc2c(Cc3ccccc3)c3[n+](cc2c1OC)CCc1cc2c(cc1-3)OCO2 | -0.73 | Dose-dependent effect | 4.84 | < 4.70 | Dose-dependent effect | – | – | – | – | – | – | inactive | inactive | – | – | viability at 20 µM [17]: 37.2%; viability at 20 µM [18]: 67.2%; Activity [19]: inactive; Activity [20]: inactive; Activity [21]: inactive; Activity [22]: inactive
CCCCCCCCCCCCCCCCCCOc1c(OC)ccc2cc3[n+](cc12)CCc1cc2c(cc1-3)OCO2.[Br-] | 3.01 | Dose-dependent effect | 5.35 | 4.65 | Dose-dependent effect | – | – | >30% | >30% | – | – | inactive | inactive | >30 | >30 | –
CCCCCCCCCCc1c2[n+](cc3c(OC)c(OC)ccc13)CCc1cc3c(cc1-2)OCO3 | 2.37 | Dose-dependent effect | 5.95 | 5.44 | Dose-dependent effect | < 20 | < 20 | Active | Active | – | – | Active | Active | – | – | Activity [23]: Active; Activity [24]: Active
CCCCCCCCCCCCCCCCc1c2[n+](cc3c(OC)c(OC)ccc13)CCc1cc3c(cc1-2)OCO3.[I-] | 3.24 | Dose-dependent effect | 5.78 | 5.49 | Dose-dependent effect | < 20 | < 20 | >30% | >30% | Active | Active | – | – | – | – | Activity [9]: >30%; Activity [10]: >30%
CCc1c2c(nc3ccc(OC(=O)N4CCC(N5CCCCC5)CC4)cc13)-c1cc3c(c(=O)n1C2)COC(=O)[C@]3(O)CC [IRINOTECAN] | – | – | – | – | – | – | – | – | – | – | – | – | – | – | – | pIC50 [25]: < 3.60
CCCCCCCCCCOc1c(OC)ccc2cc3[n+](cc12)CCc1cc2c(cc1-3)OCO2 | 2.26 | Dose-dependent effect | 5.53 | 5.24 | Dose-dependent effect | – | – | Active | Active | – | – | Active | Active | – | – | Activity [19]: Active
CCCCCCCCCCCCCCCCOc1c(OC)ccc2cc3[n+](cc12)CCc1cc2c(cc1-3)OCO2.[Br-] | 3.41 | Dose-dependent effect | 5.21 | 4.82 | Dose-dependent effect | – | – | >60% | >60% | Active | Active | – | – | >60 | >60 | Survival [26]: 38.95%
COc1ccc2cc3[n+](cc2c1OCc1ccccc1)CCc1cc2c(cc1-3)OCO2.[Br-] | -0.86 | Dose-dependent effect | 4.94 | < 4.70 | Dose-dependent effect | – | – | >30% | >30% | – | – | Active | Active | >30 | >30 | –
Cn1nnc2c(C(N)=O)ncn2c1=O [TEMOZOLOMIDE] | – | – | – | – | – | – | – | – | – | – | – | – | – | – | – | pIC50 [25]: 4.71
CCCCCCCCCCCCOc1c(OC)ccc2cc3[n+](cc12)CCc1cc2c(cc1-3)OCO2.[Br-] | 3.43 | Dose-dependent effect | 5.91 | 5.34 | Dose-dependent effect | – | – | >60% | >60% | Active | Active | Active | Active | – | – | Activity [27]: >60%; Activity [28]: >60%
COc1ccc2cc3[n+](cc2c1OC)CCc1cc2c(cc1-3)OCO2.[Cl-] [BERBERINE CHLORIDE] | -1.68 | – | < 4.70 | < 4.70 | – | – | – | – | – | Active | Active | inactive | inactive | – | – | Activity [29]: Active; Activity [30]: Active; Activity [31]: Active; Activity [32]: Active
